# According to US9907806B2, “Pharmaceutical composition for emergency contraception” (Bayer Intellectual Property GmbH, priority 2009, dated 2018):
# Where “and” joins values, the source holds several entries; their conditions need not be identical. Identical values can stand only once. Like-named read-outs stand apart in the source and are kept apart here.
# Assays:
# [1] = test system: ovulation; conditions: 21-day use; cited from earlier work
# [2] = test system: adult female rats with normal cycles; test: Ovulation inhibition test on rats; assay type: in vivo, rat; conditions: 5 animals; for Ovulation count, absolute / Ovulation count, mean: 4 days
# Experimental: The efficacy of the composition according to the invention was ascertained by ovulation-inhibiting studies carried out on adult female rats with normal cycles. First, using 5 dose groups plus placebo (0.003 mg, 0.01 mg, 0.03 mg, 0.1 mg and 0.3 mg), the limit dose of levonorgestrel (LNG) was determined at which there is still no ovulation-inhibiting effect.
# With the dose of LNG thus determined (0.01 mg), a comparison test was then carried out in which the ovulation-inhibiting effect of LNG, placebo, meloxicam, piroxicam, and the combination of LNG and meloxicam, was compared against the composition, according to the invention, of LNG plus piroxicam.
# With the onset of the metestrus, 5 animals in each case were treated on four successive days with (a) placebo, (b) 0.01 mg of LNG, (c) 2 mg of piroxicam, (d) 0.01 mg of LNG and 2 mg of piroxicam, (e) 2 mg of meloxicam, and (f) […] of LNG and 3 mg of meloxicam. LNG was given by s.c. administration, and the COX inhibitor was given orally (p.o.).
# In the following test, female rats weighing between 200 and 220 g were used. The animals were housed in macrolon cages in rooms under controlled lighting conditions (12 hours of darkness, 12 hours of light), were fed a standard diet and had access to water ad libitum.
# Levonorgestrel was dissolved in benzyl benzoate/castor oil (1+4 v/v), and the daily dose was given by s.c. administration in a volume of 1 ml/kg body weight.
# The COX inhibitors were suspended in a carrier liquid (85 mg of MyrjR53 (2-hydroxyethyl octadecanoate; CAS no. 9004-99-3) in 100 ml of 0.9% w/v NaCl solution), and the daily dose corresponding to the treatment group was administered orally in a volume of 2 ml/kg body weight.
# (§1) Two cycles were monitored using vaginal smears before the start of the test. Only animals with a regular 4-day cycle were entered in the test. The allocation to the treatment groups was randomized. Starting in the metestrus, the test substance was administered for 4 days (days 1-4) and the cycle continued to be monitored. On day 3 of treatment (proestrus), a retrobulbar blood sample was taken at 9.00 h and from 18.30 h in order to determine the luteinizing hormone (LH). On day 4 (after administration), the animals with vaginal smears showing them in estrus or metestrus underwent unilateral ovariectomy under anaesthetic. Crush preparations were made from the tubes and were examined under a microscope for the presence of oocytes. On day 5, all the animals (the intact animals and those having undergone unilateral ovariectomy) were sacrificed, and the tubes of the animals in estrus and metestrus were prepared and examined in the same way. […] By contrast, the COX inhibitors on their own provide only partial suppression of ovulation.
# (§2) The test set-up corresponds to the one described in Example 1.
# [3] = test system: adult female rats with normal cycles; test: Ovulation inhibition test on rats; assay type: in vivo, rat
# [4] = test system: ovulation; conditions: cited from earlier work
# [5] = test system: serum progesterone concentration; test: Serum progesterone concentration in proestrus at 19.00 h (Example 2); assay type: in vivo, rat
# Experimental: This can be seen as an indicator of the efficiency of the LH peak in changing from a predominantly estrogen-producing ovary (before the LH peak) to a predominantly progesterone-producing ovary (caused by the LH peak). […] By contrast, the literature describes that other COX inhibitors have no effect on the hormonal levels [Pall et al.; Human Reproduction vol. 16, no. 7, pp 1323-1328 (2001); Bata et al., J Clin Pharmacol (2006) 46:925-932]. […] The ovulation rates in the combination with 0.01 mg of levonorgestrel and 0.5 mg of piroxicam (31 oocytes), with 1 mg of piroxicam (19 oocytes) and with 2 mg of piroxicam (0 oocytes) were much lower here and, in the highest dose, even led to complete anovulation (10 animals per group).
# as §1, §2
# [6] = test system: ovulated cumulus-oocyte complexes; test: In vitro fertilization rate of ovulated cumulus-oocyte complexes after in vivo treatment (Example 3); set-up: species or system mice; conditions: n=5 animals
# Description: Substances can influence fertility by reducing the fertilizability of oocytes or cumulus-oocyte complexes. In order to investigate such effects, substances can be administered in vivo and, after ovulation from cumulus/oocyte complexes, can be subjected to in vitro fertilization. The in vitro fertilization rate, with no further test substance being added, allows conclusions to be drawn regarding the in vivo effects of the test substances.
# Immature female mice (strain: B6D2F1, Charles River, Suelzfeld, age: 19-25 days) were housed in macrolon cages in rooms under controlled lighting conditions (12 hours of darkness, 12 hours of light), were fed a standard diet and had access to water ad libitum. The mice were primed with PMSG (Pregnant Mare Serum Gonadotropin) (10 IU/animal i.p.). After 48 hours, an ovulation-triggering stimulus was induced in the animals by administration of 10 IU/animal i.p. The COX inhibitors were suspended in a carrier liquid (85 mg MyrjR53 (2-hydroxyethyl octadecanoate; CAS no. 9004-99-3) in 100 ml of 0.9% w/v NaCl solution), and the daily dose corresponding to the treatment group (n=5 animals per group) was administered in a volume of 0.2 ml p.o. 8 hours before and together with hCG. Fourteen hours after hCG administration, the animals were sacrificed. Ovulated oocytes and cumulus-oocyte complexes were recovered from the ovarian bursa and/or oviduct and subjected to in vitro fertilization, with a sperm count of 40,000 sperm/0.5 ml for 1 hour being used for the fertilization. Twenty-four hours after incubation with the sperm, the number of fertilized oocytes was established and the percentage fertilization rate determined.
# [7] = 25 mg on 9 successive days (Pall et al.)
structure (smiles),measurement,setting,value
"C#C[C@]1(OC(C)=O)CC[C@H]2[C@@H]3CCC4=CC(=NO)CC[C@@H]4[C@H]3CC[C@@]21CC (mixture of isomers) [Norgestimate (NGM), Norgestimate]","minimal dose for inhibition of ovulation, p.o. dose/day",[1],180-250 μg^31
"CC(=O)O[C@]1(C(C)=O)CC[C@H]2[C@@H]3C=C(Cl)C4=CC(=O)[C@@H]5C[C@@H]5[C@]4(C)[C@H]3CC[C@@]21C [Cyproterone acetate (CPA), Cyproterone acetate]","minimal dose for inhibition of ovulation, p.o. dose/day",[1],1 mg^33
"C#C[C@]1(O)CC[C@H]2[C@@H]3CCC4=CCCC[C@@H]4[C@H]3C(=C)C[C@@]21CC [Desogestrel (DSG), Desogestrel]","minimal dose for inhibition of ovulation, p.o. dose/day",[1],60 μg^28
"C[C@]12CCC3=C4CCC(=O)C=C4CC[C@H]3[C@@H]1CC[C@@]2(O)CC#N [Dienogest (DNG), Dienogest]","minimal dose for inhibition of ovulation, p.o. dose/day",[1],1-2 mg^29
"C[C@]12CCC(=O)C=C1[C@@H]1C[C@@H]1[C@H]1[C@@H]3[C@@H]4C[C@@H]4[C@@]4(CCC(=O)O4)[C@@]3(C)CC[C@@H]12 [Drospirenone (DRSP), Drospirenone]","minimal dose for inhibition of ovulation, p.o. dose/day",[1],2 mg^33
CC(=O)[C@H]1CC[C@H]2[C@@H]3C=CC4=CC(=O)CC[C@@]4(C)[C@@H]3CC[C@]12C [Dydrogesterone],"minimal dose for inhibition of ovulation, p.o. dose/day",[1],>30 mg^33
C#C[C@]1(O)CC[C@H]2[C@@H]3CCC4=C[C@@H](O)CC[C@@H]4[C@H]3CC[C@@]21C [Ethynodiol],"minimal dose for inhibition of ovulation, p.o. dose/day",[1],2 mg33
"C#C[C@]1(O)C=C[C@H]2[C@@H]3CCC4=CC(=O)CC[C@@H]4[C@H]3CC[C@@]21CC [Gestodene (GSD), Gestodene]","minimal dose for inhibition of ovulation, p.o. dose/day",[1],30 µg and 40 to 50 µg
"C#C[C@]1(O)CC[C@H]2[C@@H]3CCC4=CC(=O)CC[C@@H]4[C@H]3CC[C@@]21CC [LNG, levonorgestrel]","Ovulation count, absolute",[2]; LNG 0.01 mg s.c.,35
same,"Ovulation count, mean",[2]; LNG 0.01 mg s.c.,7.0 ± 2.0
same,oocytes ovulated,"[3]; Example 2, LNG on its own (0.01 mg s.c.), 10 animals per group",68 oocytes
same,oocytes ovulated,"[3]; treatment group (b), 0.1 mg of levonorgestrel, 5 animals",35 oocytes
C#C[C@]1(O)CC[C@H]2[C@@H]3CCC4=CCCC[C@@H]4[C@H]3CC[C@@]21C [Lynestrenol],"minimal dose for inhibition of ovulation, p.o. dose/day",[1],2 mg^33
CC(=O)[C@@]1(C)CC[C@H]2[C@@H]3C=C(C)C4=CC(=O)CC[C@]4(C)[C@H]3CC[C@@]21C [Medrogestone],"minimal dose for inhibition of ovulation, p.o. dose/day",[1],10 mg^33
"CC(=O)O[C@]1(C(C)=O)CC[C@H]2[C@@H]3C[C@H](C)C4=CC(=O)CC[C@]4(C)[C@H]3CC[C@@]21C [Medroxyprogesterone acetate (MPA), Medroxyprogesterone acetate]","minimal dose for inhibition of ovulation, p.o. dose/day",[1],10 mg^33
"Cc1cnc(NC(=O)C2=C(O)c3ccccc3S(=O)(=O)N2C)s1 [Meloxicam, meloxicam]","Ovulation count, absolute",[2]; COX inhibitor 2 mg p.o.,28
same,"Ovulation count, mean",[2]; COX inhibitor 2 mg p.o.,5.6 ± 2.5
same,delay in ovulation,[4]; 30 mg per patient and day on 5 successive days (Bata et al.),5 days
"CC(=O)O[C@]1(C(C)=O)CC[C@H]2[C@@H]3C=C(C)C4=CC(=O)CC[C@@H]4[C@H]3CC[C@@]21C [Nomegestrol acetate (NOMAc), Nomegestrol acetate]","minimal dose for inhibition of ovulation, p.o. dose/day",[1],2.5 mg^32
"C#C[C@]1(OC(C)=O)CC[C@H]2[C@@H]3CCC4=CC(=O)CC[C@@H]4[C@H]3CC[C@@]21C [Norethisterone acetate (NETA), Norethisterone acetate]","minimal dose for inhibition of ovulation, p.o. dose/day",[1],0.5 mg^33
C#C[C@]1(O)CC[C@H]2[C@@H]3CCC4=CC(=O)CC[C@@H]4[C@H]3CC[C@@]21C [Norethisterone],"minimal dose for inhibition of ovulation, p.o. dose/day",[1],0.5 mg^33
"CN1C(C(=O)Nc2ccccn2)=C(O)c2ccccc2S1(=O)=O [Piroxicam, piroxicam]","Ovulation count, absolute",[2]; COX inhibitor 2 mg p.o.,9
same,"Ovulation count, mean",[2]; COX inhibitor 2 mg p.o.,1.8 ± 0.4
same,oocytes ovulated,"[2]; treatment group (c), 2 mg piroxicam on its own",9 oocytes
same,Progesterone in proestrus at 19.00 h—mean ± SD (n = 10),[5]; 0.5 mg p.o.,237 ± 49
same,Progesterone in proestrus at 19.00 h—mean ± SD (n = 10),[5]; 1 mg p.o.,183 ± 67
same,Progesterone in proestrus at 19.00 h—mean ± SD (n = 10),[5]; 2 mg p.o.,122 ± 94
same,Fertilization rate (% ± SD),[6]; 2 × 0.15 mg/animal p.o.,19 ± 8%
same,Fertilization rate (% ± SD),[6]; 2 × 0.3 mg/animal p.o.,14 ± 18%
same,Fertilization rate (% ± SD),[6]; 2 × 0.5 mg/animal p.o.,12 ± 7%
same,oocytes ovulated,[3]; 1 mg piroxicam alone,28 oocytes
same,oocytes ovulated,"[3]; Example 2, 0.5 mg piroxicam p.o., 10 animals per group",85 oocytes
same,oocytes ovulated,"[3]; Example 2, 1 mg piroxicam p.o., 10 animals per group",56 oocytes
same,oocytes ovulated,"[3]; Example 2, 2 mg piroxicam p.o., 10 animals per group",30 oocytes
CC(=O)[C@H]1CC[C@H]2[C@@H]3CCC4=CC(=O)CC[C@]4(C)[C@H]3CC[C@]12C [Progesterone],"minimal dose for inhibition of ovulation, p.o. dose/day",[1],300 mg^33
CCC(=O)[C@@]1(C)CC[C@H]2[C@@H]3CCC4=CC(=O)CCC4=C3CC[C@@]21C [Promegestone],"minimal dose for inhibition of ovulation, p.o. dose/day",[1],0.5 mg^33
C[C@H](O)C(=O)[C@@]1(C)CC[C@H]2[C@@H]3CCC4=CC(=O)CCC4=C3CC[C@@]21C [Trimegestone],"minimal dose for inhibition of ovulation, p.o. dose/day",[1],0.5 mg^33
CS(=O)(=O)c1ccc(C2=C(c3ccccc3)C(=O)OC2)cc1 [rofecoxib],delay in ovulation,[4]; [7],over 48 hours
same,patients with delay in ovulation of over 48 hours,[4]; [7],4 of 6
